Values quoted from earlier work in patent US7998959B2, “Modulators of 11-β hydroxyl steroid dehydrogenase type 1, pharmaceutical compositions thereof, and methods of using the same” (Incyte Corporation, priority 2006, dated 2011).

Columns and labels:
[1] = test system: pancreatic islet cells of ob/ob mice
healthy volunteers = conditions: after seven days of treatment
[2] = test system: primary hippocampal cells

CC1(C)[C@@H](OC(=O)CCC(=O)O)CC[C@]2(C)[C@H]3C(=O)C=C4[C@@H]5C[C@@](C)(C(=O)O)CC[C@]5(C)CC[C@@]4(C)[C@]3(C)CC[C@@H]12 [carbenoxolone]
glucose-stimulated insulin release [1]: improves glucose-stimulated insulin release | IOP reduced (healthy volunteers): 18% | protection from glucocorticoid-mediated exacerbation of excitatory amino acid neurotoxicity [2]: protects the cells from glucocorticoid-mediated exacerbation of excitatory amino acid neurotoxicity | negative effects of glucocorticoids on bone nodule formation (bone nodule formation): attenuate the negative effects of glucocorticoids on bone nodule formation
